Source: US11505532B2, “SSAO inhibitor” (SHANDONG DANHONG PHARMACEUTICAL CO., LTD., priority 2017, dated 2022)

Key:
[1] = target: T1, VAP-1/SSAO (Homo sapiens (Human), UniProt Q16853); assay: Human VAP-1 enzyme activity assay (Amplex Red Monoamine Oxidase kit); type: biochemical; conditions: 10 nM VAP-1 enzyme, 30 min preincubation, benzylamine substrate; read-out: Human Recombinant VAP-1/SSAO Enzyme Inhibitory Activity IC50
Experimental: Human VAP-1 Enzyme Activity Assay:
The inhibition of the sample on VAP-1 enzyme activity was measured by using an Amplex® Red Monoamine Oxidase kit (Invitrogen #A12214). 100 nL of the gradiently-diluted to-be-tested compound (solvent DMSO) was added to a 384-well plate. 25 μL of 10 nM VAP-1 enzyme solution was added and incubated for 30 minutes at room temperature. A substrate mixture of VAP-1 enzyme (200 μM Amplex Red, 1 U/mL HRP, 1 mM Benzylamine) was added and incubated for 60 minutes at room temperature. After the incubation, the fluorescent signal was read with a microplate reader Envision (excitation light wavelength 530-560 nm, emission light wavelength 590 nm). The fluorescence signal value after the background signal was removed was analyzed by Prism software, and the IC50 of the sample against the VAP-1 enzyme was calculated.

[2] = target: T1, VAP-1/SSAO; assay: VAP-1 cell activity assay (HUVEC or CHO cells transfected with VAP-1/pCDNA(3.1) plasmid, Amplex Red); type: cell-based; conditions: HUVEC or CHO cells transfected with VAP-1 plasmid; read-out: VAP-1/SSAO Cellular Inhibitory Activity IC50
Experimental: The inhibition of the sample on VAP-1 cell activity was measured by using an Amplex® Red Monoamine Oxidase kit (Invitrogen #A12214).
The cultured HUVEC or CHO cells were plated into a 6-well plate at a density of 0.8 M/well, placed in a 37° C., 5% CO2 incubator for incubation for 24 hours, and then the cells was transferred with a Lipo2000 reagent and a VAP-1/pCDNA (3.1) plasmid, and liquid was changed for the cells after 5 hours (Lipo2000 was toxic to the cells); after 24 hours, the cells were digested and plated into 384-well plates with a density of 25 μl, 10000 cells/well, and liquid was replaced with medium without FBS for the cells after 6-7 hours, and the cell plates were incubated overnight at 37° C. in a 5% CO2 incubator.
1) Dilution of the compound: serial dilution in 4× gradient was carried out with 100% DMSO, 10 points were diluted, the starting concentration of the to-be-tested compound was 0.5 mM (final concentration was 1) μM); 100 nl of compound solution was transferred to a 384-well cell assay plate with ECHO. […]
5) The reaction was carried out in the dark at room temperature for 60 minutes, and the fluorescence value was measured by Envision: the excitation wave was 535 nm, and the emission wave was 590 nm. […]
7) The data were analyzed with Prism. The IC50 of the sample against VAP-1 cells was calculated.

[3] = Distribution of compounds in liver and blood of CD-1 mice; type: in vivo; conditions: single oral dose; for Liver Concentration (@1.0 hour) / Plasma Concentration (@1.0 hour): 1 hour after administration; for Liver Concentration/Plasma Concentration (@1.0 hour) / Liver Concentration/Plasma Concentration (@4.0 hour): ratio; for Liver Concentration (@4.0 hour) / Plasma Concentration (@4.0 hour): 4 hours after administration
Experimental: Experimental purpose: distribution of compounds in liver and blood of CD-1 mice was tested;
CD-1 Mice (male, 25-35 g, 6-9 weeks old, Shanghai Slack);
Experimental procedure: after oral administration, the drug was distributed in the liver and blood of rodents, candidate compounds in the experiment were formulated into a clear solution to be administered to mice in a single oral dose. The oral solvent was a certain proportion of an aqueous solution of hydroxypropyl β-cyclodextrin or a physiological saline solution. The concentration of the drug in the liver and blood was measured at 1 hour and 4 hours after administration.

[4] = target: hERG potassium ion channel (Homo sapiens (Human), UniProt Q12809); assay: Inhibition test of hERG potassium ion channel (automatic patch clamp, CHO-hERG cells); type: cell-based; conditions: conclusion in words
Experimental: The effect of the to-be-tested compound on the potassium ion channel of hERG was detected by a fully automatic patch clamp method.
The cells stably expressing hERG potassium channel used in the experiment were obtained from CHO-hERE of Aviva Biosciences, and CHO-hERG was cultured in 5% CO2 at 37° C.
CHO-hERG cells prepared for the experiment were cultured for at least two days, and the cell density reached 75% or more. Prior to the start of the experiment, cells were digested with TrypLE and then resuspended in extracellular fluid to collect the cells.
Extracellular fluids need to be prepared once a month. The intracellular fluid need to be subpackaged and frozen at −20° C.
The to-be-tested compound and the positive control Amitriptyline were dissolved in DMSO to a certain concentration of the stock solution, and then diluted according to different gradients, and finally added to the extracellular fluid in a certain ratio, and diluted to a concentration to be measured. Visual inspection was performed to see if there was any precipitation before the start of the experiment. Finally, the concentration of DMSO in the to-be-tested solution and the positive control Amitriptyline should not exceed 0.3%. […]
In each complete current record, based on the percentage of peak current in the negative control, the percent inhibition of the concentration of each compound can be calculated. […]

[5] = tested on: CCl4-induced chronic liver fibrosis male C57BL/6 model; assay: Oral CCl4-induced chronic liver fibrosis model; type: in vivo, C57BL/6 mice; conditions: oral daily for 28 days, superior to PXS-4728A in the same dosage
Experimental: The therapeutic effect of compounds on an oral CCl4-induced chronic liver fibrosis male C57BL/6 model was tested.
Male C57BL/6 mice, 7-8 weeks old;
Experimental method: Male C57BL/6 mice were orally administered from the day CCl4 was put for modeling, and administered daily. Continuous administration was conducted for 28 days. The animals were fasted for at least 6 hours on the next day after the last administration Animal weight was measured during euthanasia and all animals were euthanized under the guidance of the KCl Animal Euthanasia SOP. Non-anticoagulant venous blood of mice was collected from the ocular venous plexus. The whole blood was allowed to stand at room temperature for 30 minutes, and centrifuged at 5000 rpm for 5 minutes, and the serum was separated and placed in a 1.5 ml EP tube and stored at −80° C. After the whole body of the animal was perfused with hypothermic saline, the liver was taken and subjected to tissue gross image acquisition. The left lobe of the liver was divided into 4 equal parts and put into 4 tissue cryotubes for liquid nitrogen freezing, and then transferred to −80° C. for storage. The rest of the liver tissue was fixed in 10% neutral formalin fixative. […] HE staining was subjected to double-blind score by two pathological readers, and the area of hepatic fibrosis was analyzed for sirius-red stained sections by digital pathology.

hERG potassium ion channel, sequence (Q12809 whole entry): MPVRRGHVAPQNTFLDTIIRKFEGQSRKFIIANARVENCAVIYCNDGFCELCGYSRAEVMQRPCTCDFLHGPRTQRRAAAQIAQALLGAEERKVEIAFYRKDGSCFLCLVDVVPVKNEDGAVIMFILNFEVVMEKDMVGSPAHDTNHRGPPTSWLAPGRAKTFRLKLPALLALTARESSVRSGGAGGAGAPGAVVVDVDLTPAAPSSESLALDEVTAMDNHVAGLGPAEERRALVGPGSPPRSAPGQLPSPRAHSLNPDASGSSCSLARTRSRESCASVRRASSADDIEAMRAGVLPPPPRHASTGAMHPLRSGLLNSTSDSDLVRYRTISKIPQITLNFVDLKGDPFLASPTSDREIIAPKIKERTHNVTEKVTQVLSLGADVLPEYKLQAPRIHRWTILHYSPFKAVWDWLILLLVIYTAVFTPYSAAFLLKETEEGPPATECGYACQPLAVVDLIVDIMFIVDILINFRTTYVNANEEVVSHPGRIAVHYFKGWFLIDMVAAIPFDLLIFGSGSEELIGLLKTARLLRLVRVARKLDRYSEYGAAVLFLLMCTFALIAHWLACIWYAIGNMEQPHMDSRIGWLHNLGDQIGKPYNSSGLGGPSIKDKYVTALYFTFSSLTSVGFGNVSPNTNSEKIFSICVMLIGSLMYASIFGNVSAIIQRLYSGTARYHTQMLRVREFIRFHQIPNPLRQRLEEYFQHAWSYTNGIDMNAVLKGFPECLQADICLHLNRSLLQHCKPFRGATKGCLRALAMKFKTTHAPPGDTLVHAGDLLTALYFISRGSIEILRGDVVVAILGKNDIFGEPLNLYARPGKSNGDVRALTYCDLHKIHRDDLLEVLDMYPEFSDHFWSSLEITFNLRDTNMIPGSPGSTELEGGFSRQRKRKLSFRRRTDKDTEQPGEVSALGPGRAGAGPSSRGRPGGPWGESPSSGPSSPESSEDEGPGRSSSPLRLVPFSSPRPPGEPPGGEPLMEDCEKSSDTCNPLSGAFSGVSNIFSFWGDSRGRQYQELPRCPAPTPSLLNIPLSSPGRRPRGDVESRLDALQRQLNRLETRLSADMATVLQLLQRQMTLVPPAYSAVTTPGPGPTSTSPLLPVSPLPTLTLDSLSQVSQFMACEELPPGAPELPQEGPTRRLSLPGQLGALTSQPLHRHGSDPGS
T1 sequence (Q16853 whole entry): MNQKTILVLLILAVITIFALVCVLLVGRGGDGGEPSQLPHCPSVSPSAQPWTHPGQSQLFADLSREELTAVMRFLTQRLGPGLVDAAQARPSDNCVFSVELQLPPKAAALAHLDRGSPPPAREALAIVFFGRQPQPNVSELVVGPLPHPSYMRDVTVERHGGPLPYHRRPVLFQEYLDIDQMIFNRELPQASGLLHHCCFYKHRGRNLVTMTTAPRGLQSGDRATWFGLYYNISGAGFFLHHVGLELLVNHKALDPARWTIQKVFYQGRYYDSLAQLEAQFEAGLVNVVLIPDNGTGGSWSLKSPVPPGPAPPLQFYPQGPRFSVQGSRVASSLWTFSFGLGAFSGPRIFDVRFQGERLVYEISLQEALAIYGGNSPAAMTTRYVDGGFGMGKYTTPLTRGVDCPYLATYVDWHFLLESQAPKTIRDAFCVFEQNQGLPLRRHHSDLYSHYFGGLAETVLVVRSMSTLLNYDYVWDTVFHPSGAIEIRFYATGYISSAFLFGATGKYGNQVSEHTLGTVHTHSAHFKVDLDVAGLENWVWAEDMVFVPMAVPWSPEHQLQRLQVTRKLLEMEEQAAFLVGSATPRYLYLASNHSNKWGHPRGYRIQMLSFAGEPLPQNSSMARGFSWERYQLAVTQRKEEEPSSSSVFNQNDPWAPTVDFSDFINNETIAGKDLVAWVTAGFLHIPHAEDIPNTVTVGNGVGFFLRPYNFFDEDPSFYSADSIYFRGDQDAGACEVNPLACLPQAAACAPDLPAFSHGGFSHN

Row | IC50 [1] | IC50 [2] | Liver Concentration (@1.0 hour) [3] | Plasma Concentration (@1.0 hour) [3] | Liver Concentration/Plasma Concentration (@1.0 hour) [3] | Liver Concentration (@4.0 hour) [3] | Plasma Concentration (@4.0 hour) [3] | Liver Concentration/Plasma Concentration (@4.0 hour) [3] | SMILES | inhibition of hERG potassium current [4] | effect on liver fibrosis (Sirius-Red staining) [5] | effect on liver injury (liver injury score, HE staining) [5]
1 | 1.8 nM | 0.2 nM | – | – | – | – | – | – | Cn1nc(-c2ccc(OC/C(=C/F)CN)cc2F)nc1C1CC1 [WX098] | – | – | –
2 | – | – | 13140 | 1470 | 10 | 2120 | 154 | 14 | CC(C)(C)NC(=O)c1ccc(OC/C(=C/F)CN)cc1.Cl [PXS-4728A, reference compound] | – | – | –
3 | – | – | – | – | – | – | – | – | Cc1noc(-c2ccc(OC/C(=C/F)CN)cc2)n1.Cl [WX008] | weak inhibition | – | –
4 | – | – | 13520 | 934 | 15 | 3364 | 190 | 17 | Cl.Cn1nc(-c2ccc(OC/C(=C/F)CN)cc2)nc1C(F)F [WX126] | weak inhibition | obvious improvement effect | obvious improvement effect
